Assay results reported in patent US20150065416A1, “NOVEL DRUG COMBINATION” (FAB PHARMA SAS, priority 2013, published 2015).

Key:
A. baumannii RCH-69 = experiment: Mouse model of A. baumannii pneumonia, Study 3: survival; assay type: in vivo, Acinetobacter baumannii; settings: neutropenic C3H/HeN mice, q 8 h I.P. 3 days, compound (I) 200 mg/kg, meropenem 50 mg/kg, colistin 125000 Ul/kg
Procedure: The bacterial inoculum was prepared in order to obtain a suspension containing 10^8 CFU/mL of Acinetobacter baumannii in saline.
Experimentations were performed with six-week old female C3H/HeN mice (18-20 g, Breeding Centre JANVIER (Ile saint Genest Mayenne 53)) because of their particular susceptibility to Acinetobacter baumannii and the reproducibility of the results (inbreeding in the breed). Each mouse was individually marked and housed in cages containing five animals/cage under ventilated and controlled (temperature and humidity) atmosphere.
The mice were rendered transiently neutropenic by 2 intra-peritoneal (IP) injections of 150 μL of cyclophosphamide (Endoxan® 150 mg/kg) 4 (D-4) and 3 (D-3) days before the Acinetobacter baumannii inoculation (Day 0). This transient immunosuppression was sufficient to facilitate the development of the A. baumannii pneumonia while allowing the recovery of the neutrophil influx 2 (Day 2) days after inoculation in order to avoid or limit a systemic bacterial dissemination.
Mice were anesthetized by a mixture of oxygen and isoflurane. The bacterial inoculation was performed on Day 0 by intra-tracheal installation using an endotracheal catheter (50 μl of the suspension, thus 5.106 CFU). The positioning of the catheter in the trachea (instead of in the oesophagus) was checked by a “ring test”. The bacterial count in lungs was checked for all study groups by sacrificing one mouse immediately after inoculation.
Survival observations were assessed twice daily, up to 4 days post infection. The survival rates were compared with the Chi-square test or the Fisher exact test as appropriate. The survival curves were compared by the Kaplan-Meier method.
The aim of this experiment was to assess the survival rate of transiently neutropenic female C3H/HeN mice administered, 3 hours post-inoculation of A. baumannii RCH-69 via intra-tracheal route, with a compound (I) via intra-peritoneal route at 200 mg/kg 3 times daily (every 8 hours) for 3 days alone and in combination with meropenem at 50 mg/kg 3 times daily (every 8 hours) for 3 days or with colistin at 125000 UI/kg 3 times daily (every 8 hours) for 3 days. 85 mice were allocated into 6 groups as follows.
Six vials of 8 mL each containing 94.2 mg/mL of compound (I) and 47.1 mg/mL of PVP 12 PF (Kollidon 12 PF) were prepared and stored between +2° C. and +8° C. Following storage, each vial was homogenized by manual shaking and diluted by 2-fold in 13.72 mg/mL NaCl aqueous solution in order to obtain a 47.1 mg of compound (I)/mL isotonic suspension. In Groups 2, 4 and 5, mice were administered with 100 μL of the 47.1 mg/mL compound (I) suspension.

[1] = tested on: MSSA, MRSA and VISA infections; settings: murine model; cited from earlier work
[2] = tested on: Staphylococcus aureus (MSSA, MRSA, VISA, VRSA); settings: VISA and VRSA strains; cited from earlier work
S. aureus = settings: healthy human volunteers, Phase I study; cited from earlier work
[3] = 24 h after RCH strain infection
[4] = 48 h after RCH strain infection
[5] = 72 h after RCH strain infection
[6] = 96 h after RCH strain infection

Compound | No. of survivors (A. baumannii RCH-69; 0 h after RCH strain infection) | survivors (%) (A. baumannii RCH-69; 0 h after RCH strain infection) | No. of survivors (A. baumannii RCH-69; [3]) | survivors (%) (A. baumannii RCH-69; [3]) | No. of survivors (A. baumannii RCH-69; [4]) | No. of survivors (A. baumannii RCH-69; [5]) | No. of survivors (A. baumannii RCH-69; [6]) | in vivo activity [1] | in vitro activity [2] | ex vivo activity (S. aureus)
C[C@@H](O)[C@H]1C(=O)N2C(C(=O)O)=C(S[C@@H]3CN[C@H](C(=O)N(C)C)C3)[C@H](C)[C@H]12 [meropenem] | 14 | 100% | 14 | 100% | 0 | 0 | 0 |  |  | 
CCc1cc(O)c(Oc2ccc(C(N)=O)cc2F)cc1F [compound (I), 4-(4-ethyl-5-fluoro-2-hydroxyphenoxy)-3-fluorobenzamide] | 13 | 100% | 5 | 38% | 0 | 0 | 0 | active in vivo | highly active | ex vivo bactericidal activity
